The results in this text go back to patent US20090227795A1, “TARGET MOLECULES OF PLADIENOLIDES, COMPOUNDS BINDING TO SUCH TARGET MOLECULES, AND SCREENING METHOD THEREOF” (Eisai R & D Management Co., Ltd., priority 2006, published 2009).

The subject of assay [1] is HeLa cells. The experiment in a line: Observation of intracellular localization of fluorescent probe and competition assay (microscopy, anti-SC-35 staining). It is filed as cell-based. Particulars: for fluorescence intensity derived from the fluorescent probe after competition (rank order): 1 μM competitor added 1 hour before 1 μM fluorescent probe, lower intensity = stronger competition. How it is done: 1 μM of the fluorescent probe produced in Example A2 was added to HeLa cells, and the obtained mixture was incubated at 37° C. in an incubator for 1 hour. Thereafter, the medium was removed, and the remaining culture was further cultured for 1 hour in a fresh medium without probes and non-specifically adsorbed compounds were washed. The medium was removed again. The remaining culture was then washed with PBS. Thereafter, the cells were immobilized in 3.7% formaldehyde in PBS.
The immobilized cells were well washed with PBS, and were then permeabilized with 0.5% or 1% Triton X-100 in PBS. Thereafter, blocking was carried out with FBS or a blocking solution, and a primary antibody (anti-SC-35 monoclonal antibody; Sigma; S4045) was added to the resultant, so as to carry out a reaction. The reaction product was washed with PBS, and blocking was carried out again with FBS or a blocking solution. A fluorescent-labeled secondary antibody (TexasRed-labeled; Jackson) was added to the resultant, so as to carry out a reaction. The labeled sample was rapidly rinsed with distilled water, and it was then encapsulated into a Prolong antifade reagent (Molecular Probes). Localization of the fluorescent probe and the anti-SC-35 antibody was observed under a fluorescence microscope (DeltaVision, Applied Precision, Inc.) or a confocal microscope (LSM510; Carl Zeiss).
Furthermore, pladienolides or the derivatives thereof were used in the aforementioned experimental operations to carry out a competition assay. That is, before addition of the fluorescent probe, 1 μM pladienolides or the derivatives thereof were added to the cells, and the obtained mixture was then cultured for 1 hour. Thereafter, the same above operations for immobilization and staining were performed on the culture, followed by observation with a microscope, so as to confirm localization of the fluorescent probe.

The target of assay [2] is T1, SAP130 (Homo sapiens, UniProt O75533+Q15393+Q7RTV0).
T1 construct: expressed in transfected cells
The experiment in a line: Detection of band shift using GFP-fused SAP145 or GFP-fused SAP130 proteins with photoaffinity biotin probe. Conditions: 1.5 μM probe, HeLa cells stably expressing GFP-SAP145 or GFP-SAP130, band shift. It counts as binding. As to the method:
SAP145 and SAP130, which were considered to be target molecules, were detected in almost the same position on SDS-PAGE. Thus, strains stably expressing a GFP-fused SAP145 or GFP-fused SAP 130 protein were prepared, and an experiment was then […] out using a photoaffinity biotin probe.
A 1.5 μM photoaffinity biotin probe was added to HeLa cells stably expressing GFP-SAP145, and the obtained mixture was then cultured for 1 hour. After washing the cells with PBS, M-PER (PIERCE) was then added thereto, followed by stirring at 4° C. for 1 hour. Thereafter, 1/10 vol. of 1.5 M NaCl-0.5% Tween 20 solution was added to the reaction solution, and the obtained mixture was then treated with a vortex (10 sec.×3). The resultant was centrifuged at 15,000 rpm at 4° C. for 5 minutes (TOMY MX-15). The thus obtained supernatant was filtrated with a 0.45-μm membrane, and the filtrate was used in the following immunoprecipitation experiment. […]
Moreover, using the same samples. SAP145 and SAP130 were detected with the SAP145 antibody and the SAP130 antibody, respectively.
Furthermore, an agarose resin prepared from probe-untreated cells was treated with a probe in the aforementioned experimental operations. Thereafter, UV irradiation and elution of a protein were carried out by the same operations as above, and it was examined whether or not the same band was detected in the obtained sample. […]

Assay [3] deals with T2, SAP145 or SAP130 (Homo sapiens, UniProt O75533+Q15393+Q7RTV0).
T2 construct: endogenous in cells; host or cells: MDA-MB-468 (nuclear fraction, immunoprecipitate)
The experiment in a line: Detection of bound protein by treatment with photoaffinity biotin probe (immunoprecipitation, UV crosslinking, streptavidin-HRP). Particulars: 1.5 μM probe, MDA-MB-468 2000 g-pellet, all antibodies, SDS-PAGE. It is filed as binding. How it is done:
2000 g-pellet was prepared from MDA-MB-468 cells by the method described in Example B1. This pellet was suspended in a CSK buffer (300 mM sucrose, 100 mM NaCl, 3 mM MgCl2, 10 mM PIPES, pH=7.0, protease inhibitor cocktail), and the obtained suspension was then treated with the 1.5 μM photoaffinity biotin probe synthesized in Example A3. The suspension was left at rest at 4° C. for 1 hour, and it was then centrifuged at 2000 g at 4° C. for 10 minutes. The supernatant was removed, and a nuclear fraction was then prepared from the obtained precipitate by the same method as that described in Example B1. Thereafter, an immunoprecipitation solution was prepared by the sable method as that described in Example B4.
UV (365 nm and 302 nm) was applied to the obtained immunoprecipitate (agarose resin), and a crosslinking reaction was carried out. An SDS […] buffer was added to the reaction product, and the obtained mixture was then stirred with a vortex, followed by boiling at 99° C. for 10 minutes, so as to elute the immunoprecipitated proteins. The eluant was subjected to SDS-PAGE and blotting onto a PVDF membrane in accordance with common methods. Thereafter, the resultant was treated with streptavidin-HRP, so as to detect probe-bound proteins. […]

Assay [4] concerns human breast cancer cells MDA-MB-468. The experiment in a line: Intracellular distribution of tritium probe compound (cell fractionation, cold inhibition, charcoal assay). It counts as cell-based. As to the method: The tritiated probe compound produced in Example A1 was added to human breast cancer cells MDA-MB-468 (ATCC HTB-132) cultured on a 15-cm dish (>80% confluent), resulting in a concentration of 3 to 30 nM. The obtained mixture was then cultured in an incubator at 37° C. for 1 hour. After removing the medium, the culture was then washed with a Hanks' balanced salt solution (10 ml×2). Then, 3 ml of a 10% glycerol hypotonic buffer (10% glycerol, 20 mM NaCl, 1 mM EDTA, 10 mM Tris-HCl, pH=7.8, protease inhibitor cocktail) was added to the resultant. The obtained mixture was left at rest for a while, and the cells were then recovered using a cell scraper. A cell lysate was prepared using a Dounce homogenizer.
The lysate was centrifuged at 2,000 g at 4° C. for 10 minutes, so as to obtain a supernatant (2000 g-sup.) and a precipitate (2000 g-pellet). 2000 g-sup. was further centrifuged at 100,000 g at 4° C. for 60 minutes, so as to obtain a cytosol fraction as a supernatant, and a membrane fraction as a precipitate. 2000 g-pellet was suspended in 0.5 M NaCl, and the suspension was then left at rest for 30 minutes under cooling on ice, so as to elute a nuclear protein. Thereafter, centrifugation was carried out at 3,000 g at 4° C. for 10 minutes, so as to obtain a nuclear fraction as a supernatant, and a nuclear pellet as a precipitate.
The radioactivity of a tritium probe existing in each fraction was measured by the following method. That is, each of the cytosol fraction and the nuclear fraction was uniformly mixed with Hionic-Fluor (Perkin Elmer). On the other hand, each of the membrane fraction and the nuclear pellet was dissolved in Soluene-350 (Packard) (1 ml), and the obtained solution was then mixed with Hionic-Fluor. The radioactivity of each mixture was measured with a liquid scintillation counter.
At the same time, a radioisotope-non-labeled-pladienolide was used to carry out a cold inhibition experiment. That is, the cells were treated with a pladienolide having a concentration (0.15 to 1.5 μM) that was 50 times higher than the tritium probe treatment concentration, and they were then cultured at 37° C. in an incubator for 1 hour. Thereafter, the culture was treated with a tritium probe, and each fraction was prepared. Then, the radioactivity thereof was measured.
That is, 1/10 vol. (volume ratio) of a 10% activated charcoal suspension was added to each of the cytosol fraction and the nuclear fraction, followed by a treatment with a vortex for several seconds. The resultant was centrifuged at 15,000 rpm at 4° C. for 5 minutes (TOMY mini MX-15), and the radioactivity of the supernatant was measured in the same manner as that described above.

Assay [5] has as its target T3, U2 snRNP complex (Homo sapiens, UniProt O75533+Q15393+Q7RTV0).
T3 construct: endogenous in cells; host or cells: MDA-MB-468
The experiment in a line: Immunoprecipitation experiment of nuclear fraction prepared from tritium probe-treated cells. It counts as binding. Conditions: 30 nM probe, MDA-MB-468 nuclear fraction, TMG, U1A/U2B″, SM BB′ & D1, SAP155, SAP145, cyclin E antibodies. As to the method: MDA-MB-468 cells were cultured in the presence of a 30 nM tritium probe for 1 hour. Thereafter, a nuclear fraction was prepared by the same method as that described in Example B1. A dilution buffer was added to the nuclear fraction to a final concentration of 0.15 M NaCl, 0.05% CA-630 and 40 mM tris-HCl (pH=7.5), so as to prepare an immunoprecipitation solution.
To this solution, each of antibodies reacting with splicing factors, transcriptional factors, or molecules associated with such factors were added to a concentration of 1 μg/ml. The obtained mixture was slowly stirred for approximately 12 hours in a low-temperature chamber of 4° C., using a sample rotator. Thereafter, 20 μl of 50% Protein A/G-agarose conjugate suspension was added to the reaction solution, and the obtained mixture was further stirred for 2 hours in the low-temperature chamber.
The agarose resin was recovered, and it was then washed with a washing solution (0.15 M NaCl, 0.05% CA-630, 20 mM tris-HCl, pH=7.5). An SDS sample buffer was added to the resultant solution, and the obtained mixture was then stirred with a vortex. The reaction solution was boiled at 99° C. for 10 minutes, so as to elute the immunoprecipitated protein. The eluant was mixed homogeneously with Hionic-Fluor, and the radioactivity of a tritium probe existing in the eluant was then measured with a liquid scintillation counter.

As for `CCC(O)C(C)C1OC1CC(C)C=CC=C(C)C1OC(=O)CC(O)CCC(C)(O)C(OC(=O)NCCOCCOCCNC(=O)CCCCC2=[N+]3C(=Cc4c(C)cc(C)n4[B-]3(F)F)C=C2)C=CC1C` (centres unmarked) [fluorescent probe, 7-(N-(2-(2-(2-(N-(5-(5,5-difluoro-7,9-dimethyl-5H-dipyrrolo[1,2-c:2′,1′-f][1,3,2]diazaborinin-4-ium-5-uid-3-yl)pentanoyl)amino)ethoxy)ethoxy)ethyl)carbamoyloxy)-3,6,21-trihydroxy-6,10,12,16,20-pentamethyl-18,19-epoxytricosa-8,12,14-trien-11-olide], the “intracellular localization of fluorescent probe” value in assay [1] (1 μM probe, 1 hour, co-staining with anti-SC-35 antibody) was “mainly localized in granular structures in the nuclei”.
Take `CCC(O)C(C)C1OC1CC(C)/C=C/C=C(\C)C1OC(=O)CC(O)CCC(C)(O)C(OC(=O)NCCCC[C@H](NC(=O)c2ccc(C3(C(F)(F)F)NN3)cc2)C(=O)N(C)CCN(C)C(=O)CCCC[C@@H]2SC[C@@H]3NC(=O)N[C@@H]32)/C=C/C1C` (stereo partly drawn) [photoaffinity biotin probe, (8E,2E,14E)-3,621-trihydroxy-6,10,12,16,20-pentamethyl-7-(N-((5S)-6-(N-methyl-N-(2-(N-methyl-N-(5-((3aS,4S,6aR)-2-oxohexahydro-1H-thieno[3,4-d]imidazol-4-yl)pentanoyl)amino)ethyl)amino)-6-oxo-5-(N-(4-(3-(trifluoromethyl)-3H-diaziren-3-yl)benzoyl)amino)hexyl)carbamoyloxy)-18,19-epoxytricosa-8,12,14-trien-11-olide]: the “protein to which the probe has bound” value in assay [2] was “not SAP145 but SAP130”. Also, in assay [3], the “position of band of probe-bound protein” value is reported as 130-140 kDa.
Turning to `CCC(O)C(C)C1OC1CC(C)/C=C/C=C(\C)C1OC(=O)CC(O)CCC(C)(O)C(O)/C=C/C1C` (centres unmarked) [pladienolide A], the “fluorescence intensity derived from the fluorescent probe after competition (rank order)” value (shortened to “fluorescence intensity derived”) in assay [1] was “pladienolide A >non-labeled tritium probe compound >pladienolides B and D”.
Take `CCC(O)C(C)C1OC1CC(C)/C=C/C=C(\C)C1OC(=O)CC(O)CCC(C)(O)C(OC(C)=O)/C=C/C1C` (centres unmarked) [pladienolide B, reference compound]: the “fluorescence intensity derived” value in assay [1] was “pladienolide A >non-labeled tritium probe compound >pladienolides B and D”. Besides, in assay [4] (pre-treatment at 50 times the tritium probe concentration (0.15 to 1.5 μM), 1 hour), the “radioactivity of tritium probe after pre-treatment with non-labeled pladienolide (cold inhibition)” value is “almost completely disappeared”.
Regarding “(8E,12E,14E)-7-(N—[G-^3H]ethylcarbamoyloxy)-3,6,21-trihydroxy-6,10,12,16,20-pentamethyl-18,19-epoxytricosa-8,12,14-trien-11-olide [tritium probe]”, the “radioactivity of tritium probe co-immunoprecipitated with antibodies” value in assay [5] is given as “specific radioactivity was observed”. Moreover, the “radioactivity of tritium probe existing in each cell fraction” value in assay [4] (MDA-MB-468 cells, probe 3 to 30 nM, 1 hour, cytosol, membrane, nuclear fraction, nuclear pellet) is recorded as “highest radioactivity of the tritium probe was detected in the nuclear fraction”. The “radioactivity of the cytosol fraction after treatment with activated charcoal” value in assay [4] (charcoal assay, cytosol fraction) is reported as “almost all the radioactivity of the cytosol fraction disappeared”. Further, the “radioactivity in the nuclear fraction after treatment with activated charcoal” value in assay [4] (charcoal assay, nuclear fraction) is given as “did not disappear”.
For the compound pladienolide D, in assay [1], the “fluorescence intensity derived” value is “pladienolide A >non-labeled tritium probe compound >pladienolides B and D”.
